# Test results: patent US8952024B2, “Herbicidal pyrimidone derivatives” (E I du Pont de Nemours and Company, priority 2009, dated 2015)
# Legend:
# Assay in all cases: Test B pre-/postemergence plant response
# Type in all cases: in vivo
# [1] = test system: johnsongrass (Sorghum halepense); conditions: Postemergence
# Outline: (§1)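 Each species received compound formulated in non-phytotoxic solvent with surfactant, either at planting into a loam and sand blend or as a foliar spray once plants reached 2 to 18 cm in peat-based medium. Plants stayed in the greenhouse 13 to 15 days before visual evaluation against controls, scored 0 (no effect) to 100 (complete control).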
# [2] = test system: Italian ryegrass (Lolium multiflorum); conditions: Postemergence
# Outline: as §1
# [3] = test system: green foxtail (Setaria viridis); conditions: Postemergence
# Outline: as §1
# [4] = test system: large crabgrass (Digitaria sanguinalis); conditions: Postemergence
# Outline: as §1
# [5] = test system: cocklebur (Xanthium strumarium); conditions: Postemergence
# Outline: as §1
# [6] = test system: morningglory (Ipomoea coccinea); conditions: Postemergence
# Outline: as §1
# [7] = test system: giant foxtail (Setaria faberii); conditions: Postemergence
# Outline: as §1
# [8] = test system: blackgrass (Alopecurus myosuroides); conditions: for Blackgrass plant response rating (0 to 100 scale): 62 g ai/ha, postemergence, 0 is no effect, 100 is complete control; for Plant response rating, Blackgrass: Postemergence
# Outline: as §1
# soybean (Glycine max) = conditions: Postemergence
# Outline: as §1
# [9] = test system: velvetleaf (Abutilon theophrasti); conditions: Postemergence
# Outline: as §1
# [10] = test system: ragweed (common ragweed, Ambrosia elatior); conditions: Postemergence
# Outline: as §1
# kochia (Kochia scoparia) = conditions: Postemergence
# Outline: as §1
# corn (Zea mays) = conditions: Postemergence
# Outline: as §1
# [11] = test system: goosegrass (Eleusine indica); conditions: Postemergence
# Outline: as §1
# [12] = 31 g ai/ha, 0 to 100 scale (0 no effect, 100 complete control)
# [13] = 125 g ai/ha, scale 0 to 100 (0 no effect, 100 complete control)
# [14] = 250 g ai/ha, scale 0 to 100 (0 no effect, 100 complete control), 13 to 15 days
smiles,measurement,setting,value
CCCn1c(-c2cc(C)cc(C)c2)ncc(C(=O)C2=C(O)CCCC2=O)c1=O [Compound 156],"Plant response rating, Johnsongrass",[1]; [12],15
same,"Plant response rating, Johnsongrass",[1]; [13],45
same,"Plant response rating, Johnsongrass",[1]; [14],65
same,"Plant response rating, Ryegrass, Italian",[2]; [12],0
same,"Plant response rating, Ryegrass, Italian",[2]; [13],20
same,"Plant response rating, Ryegrass, Italian",[2]; [14],40
same,"Plant response rating, Foxtail, Green",[3]; [12],45
same,"Plant response rating, Foxtail, Green",[3]; [13],85
same,"Plant response rating, Foxtail, Green",[3]; [14],85
same,"Plant response rating, Crabgrass, Large",[4]; [12],45
same,"Plant response rating, Crabgrass, Large",[4]; [13],65
same,"Plant response rating, Crabgrass, Large",[4]; [14],80
same,"Plant response rating, Cocklebur",[5]; [12],20
same,"Plant response rating, Cocklebur",[5]; [13],75
same,"Plant response rating, Cocklebur",[5]; [14],98
same,"Plant response rating, Morningglory",[6]; [12],80
same,"Plant response rating, Morningglory",[6]; [13],100
same,"Plant response rating, Morningglory",[6]; [14],100
same,"Plant response rating, Foxtail, Giant",[7]; [12],75
same,"Plant response rating, Foxtail, Giant",[7]; [13],85
same,"Plant response rating, Foxtail, Giant",[7]; [14],90
same,Blackgrass plant response rating (0 to 100 scale),[8]; 13 to 15 days,5
same,"Plant response rating, Blackgrass",[8]; [12],5
same,"Plant response rating, Blackgrass",[8]; [13],35
same,"Plant response rating, Blackgrass",[8]; [14],50
same,"Plant response rating, Soybean",soybean (Glycine max); [12],80
same,"Plant response rating, Soybean",soybean (Glycine max); [13],98
same,"Plant response rating, Soybean",soybean (Glycine max); [14],98
same,"Plant response rating, Velvetleaf",[9]; [12],60
same,"Plant response rating, Velvetleaf",[9]; [13],95
same,"Plant response rating, Velvetleaf",[9]; [14],100
same,"Plant response rating, Ragweed",[10]; [12],65
same,"Plant response rating, Ragweed",[10]; [13],75
same,"Plant response rating, Ragweed",[10]; [14],90
same,"Plant response rating, Kochia",kochia (Kochia scoparia); [12],10
same,"Plant response rating, Kochia",kochia (Kochia scoparia); [13],20
same,"Plant response rating, Kochia",kochia (Kochia scoparia); [14],25
same,"Plant response rating, Corn",corn (Zea mays); [12],10
same,"Plant response rating, Corn",corn (Zea mays); [13],45
same,"Plant response rating, Corn",corn (Zea mays); [14],60
same,"Plant response rating, Goosegrass",[11]; [12],65
same,"Plant response rating, Goosegrass",[11]; [13],70
same,"Plant response rating, Goosegrass",[11]; [14],80
Cc1ccc(F)cc1-n1c(-c2cccc(Cl)c2)ncc(C(=O)C2=C(O)CCCC2=O)c1=O [Compound 157],"Plant response rating, Johnsongrass",[1]; [12],70
same,"Plant response rating, Johnsongrass",[1]; [13],100
same,"Plant response rating, Johnsongrass",[1]; [14],100
same,"Plant response rating, Ryegrass, Italian",[2]; [12],10
same,"Plant response rating, Ryegrass, Italian",[2]; [13],30
same,"Plant response rating, Ryegrass, Italian",[2]; [14],35
same,"Plant response rating, Foxtail, Green",[3]; [12],70
same,"Plant response rating, Foxtail, Green",[3]; [13],85
same,"Plant response rating, Foxtail, Green",[3]; [14],95
same,"Plant response rating, Crabgrass, Large",[4]; [12],80
same,"Plant response rating, Crabgrass, Large",[4]; [13],98
same,"Plant response rating, Crabgrass, Large",[4]; [14],100
same,"Plant response rating, Cocklebur",[5]; [12],100
same,"Plant response rating, Cocklebur",[5]; [13],100
same,"Plant response rating, Cocklebur",[5]; [14],100
same,"Plant response rating, Morningglory",[6]; [12],20
same,"Plant response rating, Morningglory",[6]; [13],95
same,"Plant response rating, Morningglory",[6]; [14],100
same,"Plant response rating, Foxtail, Giant",[7]; [12],98
same,"Plant response rating, Foxtail, Giant",[7]; [13],100
same,"Plant response rating, Foxtail, Giant",[7]; [14],100
same,Blackgrass plant response rating (0 to 100 scale),[8]; 13 to 15 days,5
same,"Plant response rating, Blackgrass",[8]; [12],0
same,"Plant response rating, Blackgrass",[8]; [13],10
same,"Plant response rating, Blackgrass",[8]; [14],40
same,"Plant response rating, Soybean",soybean (Glycine max); [12],95
same,"Plant response rating, Soybean",soybean (Glycine max); [13],100
same,"Plant response rating, Soybean",soybean (Glycine max); [14],100
same,"Plant response rating, Velvetleaf",[9]; [12],100
same,"Plant response rating, Velvetleaf",[9]; [13],100
same,"Plant response rating, Velvetleaf",[9]; [14],100
same,"Plant response rating, Ragweed",[10]; [12],90
same,"Plant response rating, Ragweed",[10]; [13],100
same,"Plant response rating, Ragweed",[10]; [14],100
same,"Plant response rating, Kochia",kochia (Kochia scoparia); [12],0
same,"Plant response rating, Kochia",kochia (Kochia scoparia); [13],10
same,"Plant response rating, Kochia",kochia (Kochia scoparia); [14],45
same,"Plant response rating, Corn",corn (Zea mays); [12],70
same,"Plant response rating, Corn",corn (Zea mays); [13],95
same,"Plant response rating, Corn",corn (Zea mays); [14],100
same,"Plant response rating, Goosegrass",[11]; [12],85
same,"Plant response rating, Goosegrass",[11]; [13],98
same,"Plant response rating, Goosegrass",[11]; [14],100
